Where a name gives a salt, the structure may show the parent alone.
Target: pim-1 kinase (Homo sapiens, UniProt P11309)
Experiment: Measurement of pim-1 kinase inhibitory activity (fluorescent substrate peptide, capillary electrophoresis)
Assay type: biochemical
Conditions: 0.1 μM of each compound, 30 μM ATP, 1.5 μM substrate peptide, room temperature 2 hours; Table 1
Method: Measurement of Pim-1 Kinase Inhibitory Activity
The result of the reaction was determined by quantifying the substrate and the phosphorylated reaction product separated by capillary electrophoresis based on difference in charges of the substances (EZ Reader II, Caliper Life Sciences, was used).

Chain of pim-1 kinase (P11309 whole entry): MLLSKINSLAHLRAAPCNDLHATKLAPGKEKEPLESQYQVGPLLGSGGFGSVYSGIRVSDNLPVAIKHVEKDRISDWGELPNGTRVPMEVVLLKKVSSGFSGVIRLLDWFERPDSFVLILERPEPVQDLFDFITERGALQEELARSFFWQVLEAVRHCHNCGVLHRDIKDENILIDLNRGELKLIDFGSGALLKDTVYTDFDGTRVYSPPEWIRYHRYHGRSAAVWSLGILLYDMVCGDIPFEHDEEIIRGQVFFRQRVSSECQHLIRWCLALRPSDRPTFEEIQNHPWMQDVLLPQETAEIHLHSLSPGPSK

| SMILES | inhibition at 0.1 µM |
| --- | --- |
| COc1ccc2c(c1CN1CCNCC1)O/C(=C\c1c[nH]c3ncccc13)C2=O [Compound A53, (Z)-2-[(1H-Pyrrolo[2,3-b]pyridin-3-yl)methylene]-6-methoxy-7-(piperazin-1-ylmethyl)benzofuran-3(2H)-one] | 98% |
| CNCc1cccc2c(/C=C3\Oc4c(ccc(O)c4CN4CCNCC4)C3=O)c[nH]c12 [Compound A28, (Z)-6-Hydroxy-2-({7-[(methylamino)methyl]-1H-indol-3-yl}methylene)-7-(piperazin-1-ylmethyl)benzofuran-3(2H)-one trihydrochloride] | 10% |
| Cc1ccc2c(/C=C3\Oc4c(cc(Cl)c(O)c4CN4CCNCC4)C3=O)c[nH]c2n1 [Compound A51, (Z)-5-Chloro-6-hydroxy-2-[(6-methyl-1H-pyrrolo[2,3-b]pyridin-3-yl)methylene]-7-(piperazin-1-ylmethyl)benzofuran-3(2H)-one trihydrochloride] | 94% |
| O=C1/C(=C/c2c[nH]c3cc([N+](=O)[O-])ccc23)Oc2c1ccc(O)c2CN1CCNCC1 [Compound A24, (Z)-6-Hydroxy-2-[(6-nitro-1H-indol-3-yl)methylene]-7-(piperazin-1-ylmethyl)benzofuran-3(2H)-one dihydrochloride] | 60% |
| Cc1ccc2c(/C=C3\Oc4c(ccc(O)c4CN4CCNCC4)C3=O)c[nH]c2n1 [Compound A48, (Z)-6-Hydroxy-2-[(6-methyl-1H-pyrrolo[2,3-b]pyridin-3-yl)methylene]-7-(piperazin-1-ylmethyl)benzofuran-3(2H)-one trihydrochloride] | 97% |
| CC(=O)NCc1ccc2[nH]cc(/C=C3\Oc4c(ccc(O)c4CN4CCNCC4)C3=O)c2c1 [Compound A20, (Z)—N-[(3-{[6-Hydroxy-3-oxo-7-(piperazin-1-ylmethyl)benzofuran-2(3H)-ylidene]methyl}-1H-indol-5-yl)methyl]acetamide dihydrochloride] | 62% |
| C#Cc1ccc2c(/C=C3\Oc4c(ccc(O)c4CN4CCNCC4)C3=O)c[nH]c2n1 [Compound A50, (Z)-2-[(6-Ethynyl-1H-pyrrolo[2,3-b]pyridin-3-yl)methylene]-6-hydroxy-7-(piperazin-1-ylmethyl)benzofuran-3(2H)-one trihydrochloride] | 94% |
| O=C1/C(=C/c2c[nH]c3ccc(OCCN4CCOCC4)cc23)Oc2c1ccc(O)c2CN1CCNCC1 [Compound A19, (Z)-6-Hydroxy-2-{[5-(2-morpholinoethoxy)-1H-indol-3-yl]methylene}-7-(piperazin-1-ylmethyl)benzofuran-3(2H)-one dihydrochloride trihydrochloride] | 62% |
| O=C1/C(=C/c2c[nH]c3ccccc23)Oc2c1ccc(O)c2CN1CCC(O)CC1 [Compound A6, (Z)-2-[(1H-Indol-3-yl)methylene]-6-hydroxy-7-[(4-hydroxypiperidin-1-yl)methyl]benzofuran-3(2H)-one] | 15% |
| CN1CCN(Cc2c(O)ccc3c2O/C(=C\c2c[nH]c4ncccc24)C3=O)CC1 [Compound A43, (Z)-2-[(1H-Pyrrolo[2,3-b]pyridin-3-yl)methylene]-6-hydroxy-7-[(4-methylpiperazin-1-yl)methyl]benzofuran-3(2H)-one] | 56% |
| O=C1/C(=C/c2c[nH]c3nc(-c4ccccc4)ccc23)Oc2c1ccc(O)c2CN1CCNCC1 [Compound A49, (Z)-6-Hydroxy-2-[(6-phenyl-1H-pyrrolo[2,3-b]pyridin-3-yl)methylene]-7-(piperazin-1-ylmethyl)benzofuran-3(2H)-one trihydrochloride] | 16% |
| Cc1ccc(S(=O)(=O)n2cc(/C=C3\Oc4c(ccc(O)c4CN4CCN(C)CC4)C3=O)c3ccccc32)cc1 [Compound A31, (Z)-6-Hydroxy-7-[(4-methylpiperazin-1-yl)methyl]-2-[(1-tosyl-1H-indol-3-yl)methylene]benzofuran-3(2H)-one] | 47% |
| O=C1/C(=C/c2c[nH]c3ccc(Cl)cc23)Oc2c1ccc(O)c2CN1CCNCC1 [Compound A21, (Z)-2-[(5-Chloro-1H-indol-3-yl)methylene]-6-hydroxy-7-(piperazin-1-ylmethyl)benzofuran-3(2H)-one dihydrochloride] | 94% |
| CN(C)CCCN1CCN(Cc2c(O)ccc3c2O/C(=C\c2c[nH]c4ccccc24)C3=O)CC1 [Compound A1, (Z)-2-[(1H-Indol-3-yl)methylene]-7-({4-[3-(dimethylamino)propyl]piperazin-1-yl}methyl)-6-hydroxybenzofuran-3(2H)-one] | 51% |
| O=C1/C(=C/c2c[nH]c3ncccc23)Oc2c1ccc(O)c2CN1CCNCC1 [Compound A42, (Z)-2-[(1H-Pyrrolo[2,3-b]pyridin-3-yl)methylene]-6-hydroxy-7-(piperazin-1-ylmethyl)benzofuran-3(2H)-one trihydrochloride] | 96% |
| O=C1/C(=C/c2c[nH]c3ccccc23)Oc2c1ccc(O)c2CN1CCSCC1 [Compound A4, (Z)-2-[(1H-Indol-3-yl)methylene]-6-hydroxy-7-(thiomorpholinomethyl)benzofuran-3(2H)-one] | 19% |

Same assay, conditions: 0.1 μM of each compound, 30 μM ATP, 1.5 μM substrate peptide, room temperature 2 hours; Table 2

| inhibition at 0.1 µM | SMILES | Pim-1 kinase inhibitory activity (%) |
| --- | --- | --- |
| 49% | O=C1CN(Cc2c(O)ccc3c2O/C(=C\c2n[nH]c4ccccc24)C3=O)CCN1 [Compound B6, (Z)-4-({2-[(1H-Indazol-3-yl)methylene]-6-hydroxy-3-oxo-2,3-dihydrobenzofuran-7-yl}methyl)piperazin-2-one] | – |
| 22% | O=C1/C(=C/c2n[nH]c3ccccc23)Oc2c1ccc(O)c2CN1CCOCC1 [Compound B5, (Z)-2-[(1H-Indazol-3-yl)methylene]-6-hydroxy-7-(morpholinomethyl)benzofuran-3(2H)-one] | – |
| 90% | O=C1/C(=C/c2n[nH]c3ccc(OC(F)(F)F)cc23)Oc2c1ccc(O)c2CN1CCNCC1 [Compound B12, (Z)-6-Hydroxy-7-(piperazin-1-ylmethyl)-2-{[5-(trifluoromethoxy)-1H-indazol-3-yl]methylene}benzofuran-3(2H)-one] | – |
| 31% | O=C1/C(=C/c2n[nH]c3ccccc23)Oc2c1ccc(O)c2C(=O)N1CCNCC1 [Compound B36, (Z)-2-[(1H-Indazol-3-yl)methylene]-6-hydroxy-7-(piperazine-1-carbonyl)benzofuran-3(2H)-one] | – |
| 93% | O=C1/C(=C/c2n[nH]c3ccc(Br)cc23)Oc2c1cc(Cl)c(O)c2CN1CCNCC1 [Compound B16, (Z)-5-Chloro-2-[(5-bromo-1H-indazol-3-yl)methylene]-6-hydroxy-7-(piperazin-1-ylmethyl)benzofuran-3(2H)-one] | – |
| 80% | O=C1/C(=C/c2n[nH]c3ccc(F)cc23)Oc2c1cc(Cl)c(O)c2CN1CCNCC1 [Compound B14, (Z)-5-Chloro-2-[(5-fluoro-1H-indazol-3-yl)methylene]-6-hydroxy-7-(piperazin-1-ylmethyl)benzofuran-3(2H)-one] | – |
| 81% | O=C1/C(=C/c2n[nH]c3ccc(F)cc23)Oc2c1ccc(O)c2CN1CCNCC1 [Compound B8, (Z)-6-Hydroxy-7-(piperazin-1-ylmethyl)-2-[(5-fluoro-1H-indazol-3-yl)methylene]benzofuran-3(2H)-one] | – |
| 14% | CN1CCN(Cc2cc(Cl)cc3c2O/C(=C\c2n[nH]c4ccccc24)C3=O)CC1 [Compound B40, (Z)-2-[(1H-Indazol-3-yl)methylene]-5-chloro-7-[(4-methylpiperazin-1-yl)methyl]benzofuran-3(2H)-one] | – |
| 90% | O=C1/C(=C/c2n[nH]c3ccc(Cl)cc23)Oc2c1cc(Cl)c(O)c2CN1CCNCC1 [Compound B15, (Z)-5-Chloro-2-[(5-chloro-1H-indazol-3-yl)methylene]-6-hydroxy-7-(piperazin-1-ylmethyl)benzofuran-3(2H)-one] | – |
| 88% | O=C1/C(=C/c2n[nH]c3ccccc23)Oc2c1cc(Cl)c(O)c2CN1CCNCC1 [Compound B13, (Z)-2-[(1H-Indazol-3-yl)methylene]-5-chloro-6-hydroxy-7-(piperazin-1-ylmethyl)benzofuran-3(2H)-one] | – |
| 94% | O=C1/C(=C/c2n[nH]c3ccccc23)Oc2c1ccc(OCCO)c2CN1CCNCC1 [Compound B34, (Z)-2-[(1H-Indazol-3-yl)methylene]-6-(2-hydroxyethoxy)-7-(piperazin-1-ylmethyl)benzofuran-3(2H)-one] | – |
| 94% | O=C1/C(=C/c2n[nH]c3ccc(Br)cc23)Oc2c1ccc(O)c2CN1CCNCC1 [Compound B10, (Z)-6-Hydroxy-7-(piperazin-1-ylmethyl)-2-[(5-bromo-1H-indazol-3-yl)methylene]benzofuran-3(2H)-one] | – |
| 63% | COc1ccc2c(c1CN1CCN(C)CC1)O/C(=C\c1n[nH]c3ccccc13)C2=O [Compound B32, (Z)-2-[(1H-Indazol-3-yl)methylene]-6-methoxy-7-[(4-methylpiperazin-1-yl)methyl]benzofuran-3(2H)-one] | – |

The next lines start with the compound.

| SMILES | inhibition at 0.1 µM | Pim-1 kinase inhibitory activity (%) |
| --- | --- | --- |
| O=C1/C(=C/c2n[nH]c3ccccc23)Oc2c1ccc(OCc1ccccc1)c2CN1CCNCC1 [Compound B28, (Z)-2-[(1H-Indazol-3-yl)methylene]-6-(benzyloxy)-7-(piperazin-ylmethyl)benzofuran-3(2H)-one] | – | 92% |
| CN1CCN(Cc2c(O)ccc3c2O/C(=C\c2n[nH]c4ccccc24)C3=O)CC1 [Compound B4, (Z)-2-[(1H-Indazol-3-yl)methylene]-6-hydroxy-7-[(4-methylpiperazin-1-yl)methyl]benzofuran-3(2H)-one] | 41% | – |
| C[C@@H]1CN(Cc2c(O)ccc3c2O/C(=C\c2n[nH]c4ccccc24)C3=O)C[C@H](C)N1 [Compound B2] | – | 61% |
| O=C1/C(=C/c2n[nH]c3ccccc23)Oc2c1ccc(O)c2CN1CCNCC1 [Compound B1, (Z)-2-[(1H-Indazol-3-yl)methylene]-6-hydroxy-7-(piperazin-1-ylmethyl)benzofuran-3(2H)-one] | 88% | – |

— patent US9156827B2, “Anticancer agent” (THE UNIVERSITY OF TOKYO, priority 2010, dated 2015)
